Test results: ChEMBL document CHEMBL4411324, “Comprehensive structure-activity-relationship of azaindoles as highly potent FLT3 inhibitors” (Bioorg Med Chem, 2019)

Molecular target: Receptor-type tyrosine-protein kinase FLT3 (Homo sapiens, UniProt P36888, ITD)
Sequence (P36888 whole entry, looked up, stated change not applied, the tested form may be a part): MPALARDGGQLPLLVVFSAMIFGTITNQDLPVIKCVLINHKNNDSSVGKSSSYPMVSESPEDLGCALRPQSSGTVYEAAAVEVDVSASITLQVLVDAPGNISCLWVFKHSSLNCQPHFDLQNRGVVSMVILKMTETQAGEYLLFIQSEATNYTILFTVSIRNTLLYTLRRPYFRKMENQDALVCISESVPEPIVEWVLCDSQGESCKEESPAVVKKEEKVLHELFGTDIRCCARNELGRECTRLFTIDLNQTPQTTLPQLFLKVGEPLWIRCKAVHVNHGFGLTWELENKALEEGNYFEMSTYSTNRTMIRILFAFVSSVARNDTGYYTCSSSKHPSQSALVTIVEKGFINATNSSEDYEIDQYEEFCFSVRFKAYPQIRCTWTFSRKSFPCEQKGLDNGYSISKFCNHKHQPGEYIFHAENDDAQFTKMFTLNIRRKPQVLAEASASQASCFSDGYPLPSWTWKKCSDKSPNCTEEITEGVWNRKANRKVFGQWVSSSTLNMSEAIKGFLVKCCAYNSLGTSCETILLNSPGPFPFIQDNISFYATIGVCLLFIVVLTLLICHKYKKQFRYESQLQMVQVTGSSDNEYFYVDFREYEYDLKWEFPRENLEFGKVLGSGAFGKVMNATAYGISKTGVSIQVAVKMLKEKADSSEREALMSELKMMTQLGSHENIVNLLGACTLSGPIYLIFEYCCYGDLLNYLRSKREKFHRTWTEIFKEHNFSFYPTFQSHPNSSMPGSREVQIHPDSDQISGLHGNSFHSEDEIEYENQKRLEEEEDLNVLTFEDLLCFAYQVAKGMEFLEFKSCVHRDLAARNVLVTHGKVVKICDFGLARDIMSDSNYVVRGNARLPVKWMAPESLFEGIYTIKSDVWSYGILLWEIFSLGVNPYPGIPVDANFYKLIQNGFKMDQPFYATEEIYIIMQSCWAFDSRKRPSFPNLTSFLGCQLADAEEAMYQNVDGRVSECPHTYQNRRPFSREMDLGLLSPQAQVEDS
Experiment: Inhibition of recombinant human N-terminal GST/His6-fused FLT3 ITD mutant (R571 to S993 residues) expressed in Sf9 insect cells assessed as residual activity using ULightTM-TK peptide as substrate incubated for 90 mins under dark condition by FRET assay
Details: not given
An IC50 greater than 10000 nM was found for `O=S(=O)(NCCNC/C=C/c1ccc(-c2ccc3ccccc3c2)cc1)c1cccc2cnccc12` in this work.
An IC50 of 2.14 nM was found for `Cc1ccc(S(=O)(=O)NCCNC(=O)CCc2ccc(-c3cnc4[nH]ccc4c3)cc2)cc1` in this work.
An IC50 of 1.32 nM was found for `O=S(=O)(NCCNCCCc1ccc(-c2cnc3[nH]ccc3c2)cc1)c1ccccc1` in this work.
An IC50 of 24 nM was found for `Nc1nccc2c(S(=O)(=O)NCCNC/C=C/c3ccc(-c4cccnc4)cc3)cccc12` in this work.
An IC50 of 8.91 nM was found for `O=S(=O)(NCCNCCCc1ccc(-c2cccnc2)cc1)c1cccc2cnccc12` in this work.
An IC50 of 23.4 nM was found for `Nc1ccc(-c2ccc(CCC(=O)NCCNS(=O)(=O)c3cccc4cnccc34)cc2)cn1` in this work.
An IC50 of 18.2 nM was found for `O=C1NCc2cc(S(=O)(=O)NCCNC/C=C/c3ccc(-c4cccnc4)cc3)ccc21` in this work.
An IC50 of 8.51 nM was found for `O=[N+]([O-])c1ccccc1S(=O)(=O)NCCNC/C=C/c1ccc(-c2cccnc2)cc1` in this work.
An IC50 of 61.7 nM was found for `O=S(=O)(NCCNC/C=C/c1ccc(-c2cccnc2)cc1)c1cccc2ccccc12` in this work.
An IC50 of 182 nM was found for `CN(CCNC/C=C/c1ccc(-c2cccnc2)cc1)S(=O)(=O)c1cccc2cnccc12` in this work.
An IC50 of 646 nM was found for `CS(=O)(=O)NCCNC/C=C/c1ccc(-c2cccnc2)cc1` in this work.
An IC50 of 2.4 nM was found for `COc1ccc(S(=O)(=O)NCCNCCCc2ccc(-c3cnc4[nH]ccc4c3)cc2)cc1` in this work.
An IC50 of 20 nM was found for `O=C1NCc2c1cccc2S(=O)(=O)NCCNC/C=C/c1ccc(-c2cccnc2)cc1` in this work.
An IC50 of 4.27 nM was found for `O=C(CCc1ccc(-c2cnc3[nH]ccc3c2)cc1)NCCNS(=O)(=O)c1cccc(C(F)(F)F)c1` in this work.
An IC50 of 47.9 nM was found for `O=C1NCc2ccc(S(=O)(=O)NCCNC/C=C/c3ccc(-c4cccnc4)cc3)cc21` in this work.
An IC50 of 126 nM was found for `CN(C/C=C/c1ccc(-c2cccnc2)cc1)CCN(C)S(=O)(=O)c1cccc2cnccc12` in this work.
An IC50 of 7.41 nM was found for `O=S(=O)(NCCNCCCc1ccc(-c2cnc3[nH]ccc3c2)cc1)c1ccc(Cl)c(Cl)c1` in this work.
An IC50 of 151 nM was found for `Nc1ncccc1-c1ccc(CCC(=O)NCCNS(=O)(=O)c2cccc3cnccc23)cc1` in this work.
An IC50 greater than 10000 nM was found for `O=C(NCCNC/C=C/c1ccc(-c2cccnc2)cc1)c1cccc2cnccc12` in this work.
An IC50 of 1.35 nM was found for `O=C(CCc1ccc(-c2cnc3[nH]ccc3c2)cc1)NCCNS(=O)(=O)c1cccc2cnccc12` in this work.
An IC50 of 8.32 nM was found for `O=S(=O)(NCCOC/C=C/c1ccc(-c2cccnc2)cc1)c1cccc2cnccc12` in this work.
An IC50 of 9.77 nM was found for `O=S(=O)(NCCNC/C=C/c1ccc(-c2cccnc2)cc1)c1ccc2[nH]ncc2c1` in this work.
An IC50 of 562 nM was found for `O=S(=O)(NCCNCc1ccc2cc(-c3cccnc3)ccc2c1)c1cccc2cnccc12` in this work.
An IC50 greater than 10000 nM was found for `CNC(=O)c1ccc(-c2ccc(CCC(=O)NCCNS(=O)(=O)c3cccc4cnccc34)cc2)cn1` in this work.
An IC50 greater than 10000 nM was found for `CNC(=O)c1ncccc1-c1ccc(CCC(=O)NCCNS(=O)(=O)c2cccc3cnccc23)cc1` in this work.
An IC50 of 4.07 nM was found for `O=C(CCc1ccc(-c2cnc3[nH]ccc3c2)cc1)NCCNS(=O)(=O)c1ccc(Cl)c(Cl)c1` in this work.
An IC50 of 158 nM was found for `O=S(=O)(NCCNCc1ccc(-c2cccnc2)cc1)c1cccc2cnccc12` in this work.
An IC50 greater than 10000 nM was found for `O=S(=O)(NCCNC/C=C/c1ccc(-c2ccccc2)cc1)c1cccc2cnccc12` in this work.
An IC50 of 47.9 nM was found for `CN(CCNCCCc1ccc(-c2cccnc2)cc1)S(=O)(=O)c1cccc2cnccc12` in this work.
An IC50 of 26.9 nM was found for `Nc1ccccc1S(=O)(=O)NCCNC/C=C/c1ccc(-c2cccnc2)cc1` in this work.
An IC50 of 38.9 nM was found for `O=S(=O)(NCCOCCCc1ccc(-c2cccnc2)cc1)c1cccc2cnccc12` in this work.
An IC50 of 2.04 nM was found for `Cc1ccc(S(=O)(=O)NCCNCCCc2ccc(-c3cnc4[nH]ccc4c3)cc2)cc1` in this work.
An IC50 of 19.5 nM was found for `Nc1cc2c(S(=O)(=O)NCCNC/C=C/c3ccc(-c4cccnc4)cc3)cccc2cn1` in this work.
An IC50 of 170 nM was found for `O=S(=O)(NCCCCCCc1ccc(-c2cccnc2)cc1)c1cccc2cnccc12` in this work.
An IC50 of 4.37 nM was found for `O=S(=O)(NCCNCCCc1ccc(-c2cnc3[nH]ccc3c2)cc1)c1ccc(Cl)cc1` in this work.
An IC50 of 0.324 nM was found for `O=C(CCc1ccc(-c2cnc3[nH]ccc3c2)cc1)NCCNS(=O)(=O)c1ccccc1` in this work.
An IC50 of 1.66 nM was found for `O=S(=O)(NCCNCCCc1ccc(-c2cnc3[nH]ccc3c2)cc1)c1cccc2cnccc12` in this work.
An IC50 of 32.4 nM was found for `O=C(CCc1ccc(-c2cccnc2)cc1)NCCNS(=O)(=O)c1cccc2cnccc12` in this work.
An IC50 of 9.55 nM was found for `O=S(=O)(NCCNC/C=C/c1ccc(-c2cccnc2)cc1)c1cccc2cnccc12` in this work.
An IC50 of 269 nM was found for `O=S(=O)(NCCNCCc1ccc(-c2cccnc2)cc1)c1cccc2cnccc12` in this work.
An IC50 of 0.479 nM was found for `O=C(CCc1ccc(-c2cnc3[nH]ccc3c2)cc1)NCCNS(=O)(=O)c1ccccc1Cl` in this work.
An IC50 of 17 nM was found for `O=S(=O)(NCCNC/C=C/c1ccc(-c2cccnc2)cc1)c1ccc2cn[nH]c2c1` in this work.
An IC50 of 0.407 nM was found for `O=C(CCc1ccc(-c2cnc3[nH]ccc3c2)cc1)NCCNS(=O)(=O)c1ccc(F)cc1` in this work.
An IC50 of 6.92 nM was found for `O=C(CCc1ccc(-c2cnc3[nH]ccc3c2)cc1)NCCNS(=O)(=O)c1cc(Cl)cc(Cl)c1` in this work.
An IC50 of 1.91 nM was found for `O=C(CCc1ccc(-c2cnc3[nH]ccc3c2)cc1)NCCNS(=O)(=O)c1cccc(Cl)c1` in this work.
An IC50 of 1.82 nM was found for `COc1ccc(S(=O)(=O)NCCNC(=O)CCc2ccc(-c3cnc4[nH]ccc4c3)cc2)cc1` in this work.
An IC50 of 2.4 nM was found for `O=C(CCc1ccc(-c2cnc3[nH]ccc3c2)cc1)NCCNS(=O)(=O)c1ccc(Cl)cc1` in this work.
An IC50 of 135 nM was found for `CN(C/C=C/c1ccc(-c2cccnc2)cc1)CCNS(=O)(=O)c1cccc2cnccc12` in this work.
An IC50 of 13.8 nM was found for `CNC(=O)c1ccc(S(=O)(=O)NCCNC/C=C/c2ccc(-c3cccnc3)cc2)cn1` in this work.

Tested on: Receptor-type tyrosine-protein kinase FLT3 (Homo sapiens), P36888 [UNDEFINED MUTATION]
Sequence (P36888 whole entry, looked up, stated change not applied, the tested form may be a part): as above
Experiment: Inhibition of recombinant human N-terminal GST/His6-fused FLT3 ITD mutant (R571 to S993 residues) expressed in Sf9 insect cells assessed as residual activity at 2 uM using ULightTM-TK peptide as substrate incubated for 90 mins under dark condition by FRET assay relative to control
Details: not given
An Activity of 9% was found for `O=S(=O)(NCCNC/C=C/c1ccc(-c2cnc3ccccc3c2)cc1)c1cccc2cnccc12` in this work.
An Activity of 13% was found for `O=S(=O)(NCCNC/C=C/c1ccc(-c2cncnc2)cc1)c1cccc2cnccc12` in this work.
An Activity of 14% was found for `O=S(=O)(NCCNC/C=C/c1ccc(-c2cn[nH]c2)cc1)c1cccc2cnccc12` in this work.
An Activity of 13% was found for `O=S(=O)(NCCNC/C=C/c1ccc(-c2cccnc2)cc1)c1cccc2cnccc12` in this work.

Tested on: not listed separately
Experiment: Lipophilicity, log D of the compound at pH 7.4
Assay type: physicochemical
Details: buffer
A logD of 1.5 was found for `O=S(=O)(NCCNC/C=C/c1ccc(-c2cccnc2)cc1)c1cccc2cnccc12` in this work.
